Assay results: US9585846B2, “Anti-microbial composition” (Wild Child, priority 2007, dated 2017)

Tested on: S. aureus ATCC 6538P
Assay: Agar plate test of cream against S. aureus (colonies recovered)
Type: cell-based
Settings: farnesol when combined with cetrimide
Protocol: A series of plates were then prepared containing an aliquot of sample (3) prepared in accordance with the preferred formula given above. The aliquot was suspended in tryptone soy agar. 1 g of the cream was emulsified into 5 mL of saline. A 2 mL aliquot was removed and serially diluted using saline. 6 mL of tryptone soy broth was then added to the suspensions. They were then added to 10 ml, of molten double strength tryptone soy agar and plate poured. Once cooled the plates were inoculated with 94 cfu of S. aureus ATCC 6538P. The plates were then incubated at 32° C. for 5 days. Following the incubation the number of colonies of S. aureus isolated was then determined.

With CC(C)=CCCC(C)=CCCC(C)=CCO [farnesol] the “Antimicrobial effect of the combination” value was “synergistic antimicrobial effects”.
